Molecular target: T1, T1R umami taste receptor (Homo sapiens, UniProt Q7RTX0+Q7RTX1)
T1 sequence (Q7RTX1 21-841): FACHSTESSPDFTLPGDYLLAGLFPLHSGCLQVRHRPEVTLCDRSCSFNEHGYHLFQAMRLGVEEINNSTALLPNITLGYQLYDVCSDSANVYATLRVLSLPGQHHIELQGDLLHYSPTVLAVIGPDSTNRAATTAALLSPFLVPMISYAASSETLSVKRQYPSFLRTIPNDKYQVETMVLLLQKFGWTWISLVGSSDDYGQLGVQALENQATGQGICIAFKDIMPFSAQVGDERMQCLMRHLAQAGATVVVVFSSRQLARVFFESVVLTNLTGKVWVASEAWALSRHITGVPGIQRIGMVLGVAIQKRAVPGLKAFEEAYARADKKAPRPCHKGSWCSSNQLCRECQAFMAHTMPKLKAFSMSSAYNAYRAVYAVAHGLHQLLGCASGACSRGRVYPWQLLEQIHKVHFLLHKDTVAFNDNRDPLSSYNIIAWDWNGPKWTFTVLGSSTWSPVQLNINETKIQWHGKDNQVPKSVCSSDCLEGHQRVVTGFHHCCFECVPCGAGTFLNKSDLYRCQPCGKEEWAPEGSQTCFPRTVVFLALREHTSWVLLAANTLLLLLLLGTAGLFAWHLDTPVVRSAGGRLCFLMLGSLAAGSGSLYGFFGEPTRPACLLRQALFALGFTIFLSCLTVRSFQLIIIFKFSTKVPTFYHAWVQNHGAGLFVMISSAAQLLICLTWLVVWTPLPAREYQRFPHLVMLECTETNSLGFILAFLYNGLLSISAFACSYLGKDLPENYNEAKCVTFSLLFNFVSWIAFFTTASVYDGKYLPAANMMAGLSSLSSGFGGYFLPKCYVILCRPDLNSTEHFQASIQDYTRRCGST
T1 sequence (Q7RTX0 21-852): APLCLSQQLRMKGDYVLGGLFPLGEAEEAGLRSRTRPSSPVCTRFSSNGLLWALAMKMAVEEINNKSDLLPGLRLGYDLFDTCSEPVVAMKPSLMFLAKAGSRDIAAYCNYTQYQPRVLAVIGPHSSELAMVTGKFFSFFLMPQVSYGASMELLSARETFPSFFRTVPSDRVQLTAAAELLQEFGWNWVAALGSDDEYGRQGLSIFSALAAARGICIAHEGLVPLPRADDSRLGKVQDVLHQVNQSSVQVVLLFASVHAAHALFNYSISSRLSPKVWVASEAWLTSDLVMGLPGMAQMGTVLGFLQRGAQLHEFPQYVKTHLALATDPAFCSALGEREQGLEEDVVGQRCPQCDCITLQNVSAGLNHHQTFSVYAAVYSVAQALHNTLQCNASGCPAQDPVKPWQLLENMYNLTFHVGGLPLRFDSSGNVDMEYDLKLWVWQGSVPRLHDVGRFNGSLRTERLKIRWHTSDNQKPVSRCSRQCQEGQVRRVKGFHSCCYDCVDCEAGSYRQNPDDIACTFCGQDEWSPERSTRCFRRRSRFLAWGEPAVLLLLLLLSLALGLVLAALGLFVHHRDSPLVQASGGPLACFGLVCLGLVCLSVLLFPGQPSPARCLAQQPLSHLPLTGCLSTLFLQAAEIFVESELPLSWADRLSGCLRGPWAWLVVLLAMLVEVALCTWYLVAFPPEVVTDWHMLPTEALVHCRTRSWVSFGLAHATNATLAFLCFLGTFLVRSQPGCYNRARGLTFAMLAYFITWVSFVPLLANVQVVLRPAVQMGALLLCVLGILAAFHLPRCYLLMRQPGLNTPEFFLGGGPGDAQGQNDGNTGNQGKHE
Assay: in vitro cell-based assay having cells that express the T1R umami taste receptor (enhancement of MSG)
Conditions: for EC50: cells expressing T1R umami taste receptor, read-out: EC50 for enhancement of MSG binding
Procedure: Each of Compounds 101-183 was synthesized according to one of the general procedures set forth above in Examples 1. Thereafter, the compounds were tested in an in vitro cell-based assay having cells that express the T1R umami taste receptor. Dose-binding curves were recorded and the EC50 was determined for enhancement of MSG binding. Table 2 sets forth the calculated EC50 values for certain tested compounds as well as the MSG enhancement ratio at a particular concentration.

SMILES	EC50	MSG Enh. Ratio (compound at 50 μM)	further results
CC[C@H](C)[C@H](NC(=O)c1ccc(OC)c(OC)c1)C(=O)OC [Compound 125, Methyl (3,4-dimethoxybenzoyl)-L-isoleucinate]	> 50 µM	2.7 @	
CCOC(=O)[C@H](Cc1ccccc1)NC(=O)/C=C/c1ccc(OC)c(OC)c1 [Compound 158, Ethyl (E)-(3-(3,4-dimethoxyphenyl)acryloyl)-L-phenylalaninate]			MSG Enh. Ratio (compound at 10 μM): 4.8 @
CCOC(=O)[C@@H](NC(=O)c1ccc2ccccc2n1)C(C)C [Compound 133, Ethyl (quinoline-2-carbonyl)-L-valinate]	> 50 µM	2.7 @	
CCOC(=O)CC[C@H](NC(=O)c1ccc2c(c1)OCO2)C(=O)OCC [Compound 129, Diethyl (benzo[d][1,3]dioxole-5-carbonyl)-L-glutamate]	12 µM		MSG Enh. Ratio (compound at 3 μM): 7.5 @
COC(=O)CC[C@H](NC(=O)/C=C/c1ccccc1)C(=O)OC [Compound 139, Dimethyl cinnamoyl-L-glutamate]		3.82 @	
COC(=O)[C@@H](NC(=O)c1ccc(C)c(C)c1)C(C)C [Compound 117, Methyl (3,4-dimethylbenzoyl)-L-valinate]	11.1 µM		MSG Enh. Ratio (compound at 3 μM): 4.6 @
COC(=O)[C@H](Cc1ccccc1)NC(=O)c1ccc(C)cc1 [Compound 104, Methyl (4-methylbenzoyl)-L-phenylalaninate]	> 50 µM		MSG Enh. Ratio (compound at 10 μM): 3.3 @
CCOC(=O)[C@H](CC(C)C)NC(=O)/C=C/c1ccccc1 [Compound 135, Ethyl cinnamoyl-L-leucinate]		5.3 @	
CCOC(=O)[C@H](Cc1ccccc1)NC(=O)c1ccc(C)c(C)c1 [Compound 120, Ethyl (3,4-dimethylbenzoyl)-L-phenylalaninate]	12 µM		MSG Enh. Ratio (compound at 10 μM): 4.6 @
COC(=O)[C@@H](NC(=O)c1ccc2c(c1)OCO2)C(C)C [Compound 127, Methyl (benzo[d][1,3]dioxole-5-carbonyl)-L-valinate]	> 50 µM	3.4 @	
COC(=O)[C@@H](CC(C)C)NC(=O)c1ccc(C)cc1 [Compound 101, Methyl (4-methylbenzoyl)-D-leucinate]	< 2 µM		
COC(=O)[C@H](Cc1ccccc1)NC(=O)c1ccc(OC)cc1 [Compound 105, Methyl (4-methoxybenzoyl)-L-phenylalaninate]	36 µM	6.5 @	
CCOC(=O)[C@@H](CC(C)C)NC(=O)c1ccc(C)cc1 [Compound 102, Ethyl (4-methylbenzoyl)-D-leucinate]	< 2 µM		
CCOC(=O)[C@@H](NC(=O)c1ccc(C)c(C)c1)C(C)C [Compound 118, Ethyl (3,4-dimethylbenzoyl)-L-valinate]	4.8 µM		MSG Enh. Ratio (compound at 3 μM): 7.0 @
CCOC(=O)[C@@H](NC(=O)c1ccc(COC)cc1)C(C)C [Compound 110, Ethyl (4-(methoxymethyl)benzoyl)-L-valinate]	> 50 µM	2.7 @	
COC(=O)[C@H](Cc1ccccc1)NC(=O)c1ccc2c(c1)OCO2 [Compound 128, Methyl (benzo[d][1,3]dioxole-5-carbonyl)-L-phenylalaninate]	> 50 µM		MSG Enh. Ratio (compound at 10 μM): 3.7 @
CCOC(=O)[C@H](CCSC)NC(=O)/C=C/C(C)C [Compound 170, Ethyl (E)-(4-methylpent-2-enoyl)-L-methioninate]			MSG Enh. Ratio (compound at 10 μM): 3.5 @

Further lines, with some results ahead:

EC50	MSG Enh. Ratio (compound at 50 μM)	SMILES	further results
> 50 µM	3.0 @	C/C=C/C=C/C(=O)N[C@H](C(=O)OCC)C(C)C [Compound 179, Ethyl ((2E,4E)-hexa-2,4-dienoyl)-L-valinate]	
> 50 µM	2.1 @	C/C=C/C(=O)N[C@@H](Cc1ccccc1)C(=O)OC [Compound 167, Methyl (E)-but-2-enoyl-L-phenylalaninate]	
1 µM		CCOC(=O)[C@@H](CC(C)C)NC(=O)/C=C/c1ccc(OC)cc1 [Compound 150, Ethyl (E)-(3-(4-methoxyphenyl)acryloyl)-D-leucinate]	
> 50 µM	3.3 @	COC(=O)[C@H](C)NC(=O)/C=C/c1ccc(OC)cc1 [Compound 142, Methyl (E)-(3-(4-methoxyphenyl)acryloyl)-L-alaninate]	
> 50 µM	2.8 @	C/C=C/C=C/C(=O)N[C@H](C(=O)OCC)[C@@H](C)CC [Compound 183, Ethyl ((2E,4E)-hexa-2,4-dienoyl)-L-isoleucinate]	
12 µM		CCOC(=O)CC[C@H](NC(=O)/C=C/c1ccccc1)C(=O)OCC [Compound 140, Diethyl cinnamoyl-L-glutamate]	MSG Enh. Ratio (compound at 10 μM): 5.6 @
1 µM		CCOc1ccc(/C=C/C(=O)N[C@@H](Cc2ccccc2)C(=O)OC)cc1 [Compound 155, Methyl (E)-(3-(4-ethoxyphenyl)acryloyl)-L-phenylalaninate]	MSG Enh. Ratio (compound at 0.3 μM): 8.1 @
> 50 µM	3.1 @	COC(=O)CC[C@H](NC(=O)/C=C/C(C)C)C(=O)OC [Compound 173, Dimethyl (E)-(4-methylpent-2-enoyl)-L-glutamate]	
> 50 µM	3.9 @	CCOC(=O)[C@H](Cc1ccccc1)NC(=O)/C=C/c1ccc2c(c1)OCO2 [Compound 160, Ethyl (E)-(3-(benzo[d][1,3]dioxol-5-yl)acryloyl)-L-phenylalaninate]	
4 µM		CCOC(=O)CC[C@H](NC(=O)/C=C/c1ccc(OCC)cc1)C(=O)OCC [Compound 156, Diethyl (E)-(3-(4-ethoxyphenyl)acryloyl)-L-glutamate]	
> 50 µM	4.6 @	C=C(C)C1CC=C(C(=O)N[C@@H](Cc2ccccc2)C(=O)OC)CC1 (stereo partly drawn) [Compound 166, Methyl (4-(prop-1-en-2-yl)cyclohex-1-ene-1-carbonyl)-L-phenylalaninate]	
> 50 µM	5.6 @	CCC/C=C/C(=O)N[C@@H](CCC(=O)OCC)C(=O)OCC [Compound 178, Diethyl (E)-hex-2-enoyl-L-glutamate]	
1 µM		CCOC(=O)[C@H](NC(=O)/C=C/c1ccc(OC)cc1)C(C)C [Compound 145, Ethyl (E)-(3-(4-methoxyphenyl)acryloyl)-D-valinate]	
> 50 µM	3.4 @	C/C=C/C=C/C(=O)N[C@@H](CCC(=O)OCC)C(=O)OCC [Compound 182, Diethyl ((2E,4E)-hexa-2,4-dienoyl)-L-glutamate]	
> 50 µM	3.1 @	COC(=O)[C@H](Cc1ccccc1)NC(=O)/C=C/c1cc(OC)ccc1OC [Compound 157, Methyl (E)-(3-(2,5-dimethoxyphenyl)acryloyl)-L-phenylalaninate]	
2 µM		CCOC(=O)CC[C@H](NC(=O)/C=C/c1ccc(OC)cc1)C(=O)OCC [Compound 151, Diethyl (E)-(3-(4-methoxyphenyl)acryloyl)-L-glutamate]	MSG Enh. Ratio (compound at 3 μM): 4.2 @
2.24 µM		CCOC(=O)[C@@H](NC(=O)/C=C/c1ccc(OC)cc1)C(C)C [Compound 147, Ethyl (E)-(3-(4-methoxyphenyl)acryloyl)-L-valinate]	MSG Enh. Ratio (compound at 0.3 μM): 3.0 @
1 µM		CCOC(=O)[C@@H](NC(=O)/C=C/c1ccc(OCC)cc1)C(C)C [Compound 153, Ethyl (E)-(3-(4-ethoxyphenyl)acryloyl)-L-valinate]	MSG Enh. Ratio (compound at 0.3 μM): 7.4 @
